The results in this text go back to US6166038A, “Aminopyrazole derivatives” (Banyu Pharmaceutical Co., Ltd., priority 1996, dated 2000).

In this assay the target is T1, human NPY Y5 receptor (Homo sapiens, UniProt Q15761).
T1 construct: expressed in transfected cells; host or cells: COS-7, CHO and LM(tk-)
T1 sequence (Q15761 1-445): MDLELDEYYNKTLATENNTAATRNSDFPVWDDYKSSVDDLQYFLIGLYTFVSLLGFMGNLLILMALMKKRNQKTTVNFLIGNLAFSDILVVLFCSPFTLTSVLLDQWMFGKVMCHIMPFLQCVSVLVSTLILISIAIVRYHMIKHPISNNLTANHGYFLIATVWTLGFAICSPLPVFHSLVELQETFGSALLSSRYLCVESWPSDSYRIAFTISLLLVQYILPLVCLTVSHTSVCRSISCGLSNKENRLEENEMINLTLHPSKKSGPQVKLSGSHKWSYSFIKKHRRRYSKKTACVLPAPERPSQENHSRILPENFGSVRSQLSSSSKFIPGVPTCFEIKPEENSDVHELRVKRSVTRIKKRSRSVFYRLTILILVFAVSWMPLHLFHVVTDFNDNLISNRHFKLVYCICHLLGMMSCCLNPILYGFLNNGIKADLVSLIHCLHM
The assay can be described thus: test of inhibition of NPY binding ([125I] peptide YY binding to membranes of NPY Y5 receptor-expressing cells). Particulars: [125I] peptide YY, 20,000 cpm, 25° C., 2 hours, pH 7.4; membranes of transfected cells; read-out: IC50 value (inhibition of specific binding of peptide YY). An excerpt:
cDNA Sequence encoding a human NPY Y5 receptor [International Publication Wo 96/16542] was cloned into expression vectors pcDNA3, pRc/RSV (manufactured by Invitrogen) and pCI-neo (manufactured by Promega). Using the cationic lipid method [see Proceedings of the National Academy of Science of the United States of America, vol.84, p.7413 (1987)], host cells COS-7, CHO and LM(tk-) (American Type Culture Collection) were transfected with the thus prepared expression vectors to obtain cells in which the NPY Y5 receptor had been expressed.
Each of the membrane preparations thus prepared from the cells in which the NPY Y5 receptor had been expressed was incubated together with each compound to be tested and 20,000 cpm of [^125 I] peptide YY (manufactured by Amersham) at 25° C. for 2 hours in an assay buffer solution (25 mM HEPES buffer, pH 7.4, containing 10 mM magnesium chloride, 1 mM phenylmethylsulfonyl fluoride and 0.1% bacitracin) and then, the reaction mixture was filtered through a glass filter GF/C. After washing with 50 mM Tris buffer, pH 7.4, containing 0.3% BSA, radioactivity on the glass filter was measured using a gamma counter. […]

What is called IC50 is the midpoint of a concentration-inhibition curve. For the compound `COc1ccc(-c2cc(NC(=O)C3CCN(c4cccc(Cl)c4)CC3)n[nH]2)cc1` [Example 4, 3-[1-(3-chlorophenyl)piperidin-4-yl]carbonylamino-5-(4-methoxyphenyl)pyrazole], the IC50 was 39 nM.
